Measured values reported in US4713378A, “Penem derivatives” (Farmitalia Carlo Erba S.p.A., priority 1984, dated 1987).
In brackets after ≈: the same amount, converted by molar mass. Read-outs that look alike come from different tables or passages of the source.

Assays:
Assay type in all cases: cell-based
[1] = tested on: Escherichia coli 026:B6 Cef R; test: antibacterial in vitro activity (MIC), Escherichia coli 026:B6 Cef R
Text: (§1) Comparison between the antibacterial in vitro activity
(§2) (MIC, μg/ml) of compound "5" and two reference drugs: […]

[2] = tested on: Staphylococcus aureus 209 P; test: antibacterial in vitro activity (MIC), Staphylococcus aureus 209 P
Text: as §1, §2

[3] = tested on: Proteus morganii ATCC 25830; test: antibacterial in vitro activity (MIC), Proteus morganii ATCC 25830; settings: Morganella morganii, ATCC25830; Proteus morganii ATCC 25830, in vitro
Text: as §1, §2

[4] = tested on: Staphylococcus aureus Smith; test: antibacterial in vitro activity (MIC), Staphylococcus aureus Smith
Text: as §1, §2

[5] = tested on: Escherichia coli 026:B6; test: antibacterial in vitro activity (MIC), Escherichia coli 026:B6; settings: Escherichia coli 026:B6, in vitro
Text: as §1, §2

[6] = tested on: Escherichia coli B; test: antibacterial in vitro activity (MIC), Escherichia coli B
Text: as §1, §2

[7] = tested on: Klebsiella aerogenes 1082E (β-lact.+); test: antibacterial in vitro activity (MIC), Klebsiella aerogenes 1082E (β-lact.+)
Text: as §1, §2

[8] = tested on: Streptococcus pyogenes ATCC 12384; test: antibacterial in vitro activity (MIC), Streptococcus pyogenes ATCC 12384; settings: ATCC12384; Streptococcus pyogenes ATCC 12384, in vitro
Text: as §1, §2

[9] = tested on: Shigella flexneri ATCC 11836; test: antibacterial in vitro activity (MIC), Shigella flexneri ATCC 11836; settings: ATCC11836; Shigella flexneri ATCC 11836, in vitro
Text: as §1, §2

[10] = tested on: Pseudomonas aeruginosa ATCC 19660; test: antibacterial in vitro activity (MIC), Pseudomonas aeruginosa ATCC 19660; settings: ATCC19660; Pseudomonas aeruginosa ATCC 19660, in vitro
Text: as §1, §2

[11] = tested on: Escherichia coli B Cef. R (β-lact.+); test: antibacterial in vitro activity (MIC), Escherichia coli B Cef. R (β-lact.+)
Text: as §1, §2

[12] = tested on: Salmonella typhimurium ATCC 14028; test: antibacterial in vitro activity (MIC), Salmonella typhimurium ATCC 14028; settings: Salmonella enterica; Salmonella typhimurium ATCC 14028, in vitro
Text: as §1, §2

[13] = tested on: Enterobacter cloacae P 99 (β-lact.+); test: antibacterial in vitro activity (MIC), Enterobacter cloacae P 99 (β-lact.+)
Text: as §1, §2

[14] = tested on: Citrobacter freundii ATCC 8090; test: antibacterial in vitro activity (MIC), Citrobacter freundii ATCC 8090; settings: ATCC8090; Citrobacter freundii ATCC 8090, in vitro
Text: as §1, §2

[15] = tested on: Serratia marcescens ATCC 2902; test: antibacterial in vitro activity (MIC), Serratia marcescens ATCC 2902; settings: ATCC2902; Serratia marcescens ATCC 2902, in vitro
Text: as §1, §2

[16] = tested on: Proteus mirabilis FI 7474; test: antibacterial in vitro activity (MIC), Proteus mirabilis FI 7474; settings: FI7474; Proteus mirabilis FI 7474, in vitro
Text: as §1, §2

[17] = tested on: Enterobacter cloacae 1321 E; test: antibacterial in vitro activity (MIC), Enterobacter cloacae 1321 E
Text: as §1, §2

[18] = Enterobacter cloacae P 99 (β-lact.+), in vitro, read-out: MIC
[19] = Staphylococcus aureus 209 P, in vitro, read-out: MIC

Row | Structure (SMILES) | MIC [1] | MIC ([2]; Staphylococcus aureus, 209P) | MIC [3] | MIC [4] | MIC [5] | MIC [6] | MIC [7] | MIC [8] | MIC [9] | MIC [10] | MIC [11] | MIC [12] | MIC [13, 18] | MIC [2, 19] | MIC [14] | MIC [15] | MIC [16] | MIC [17] | MIC ([13]; Enterobacter cloacae)
1 | CO/N=C(\C(=O)N[C@@H]1C(=O)N2C(C(=O)O)=C(COC(C)=O)CS[C@H]12)c1csc(N)n1 [Cefotaxime] | 1.56 mg/L (≈ 3.43 µM) | 1.56 mg/L (≈ 3.43 µM) | 0.011 mg/L (≈ 0.0242 µM) | 0.78 mg/L (≈ 1.71 µM) | 0.78 mg/L (≈ 1.71 µM) | 0.011 mg/L (≈ 0.0242 µM) | 3.12 mg/L (≈ 6.85 µM) | 0.78 mg/L (≈ 1.71 µM) | 0.023 mg/L (≈ 0.0505 µM) | 12 mg/L (≈ 26.3 µM) | 0.19 mg/L (≈ 0.417 µM) | 0.045 mg/L (≈ 0.0988 µM) | > 100 mg/L | – | – | – | – | – | –
2 | C[C@@H](O)[C@H]1C(=O)N2C(C(=O)[O-])=C(C[N+]3(C)CCCC3)S[C@H]12 [Compound 5, (5R,6S)-6-[(1R)-hydroxyethyl]-2-[1-(1-methylpyrrolidinio)]-methylpenem-3-carboxylate] | – | – | 0.38 mg/L (≈ 1.22 µM) | < 0.005 mg/L | 0.005 mg/L (≈ 0.016 µM) | 0.045 mg/L (≈ 0.144 µM) | 0.045 mg/L (≈ 0.144 µM) | < 0.005 mg/L | 0.045 mg/L (≈ 0.144 µM) | 25 mg/L (≈ 80 µM) | 0.045 mg/L (≈ 0.144 µM) | 0.045 mg/L (≈ 0.144 µM) | 0.045 mg/L (≈ 0.144 µM) | < 0.005 mg/L | 0.09 mg/L (≈ 0.288 µM) | 0.78 mg/L (≈ 2.5 µM) | 0.19 mg/L (≈ 0.608 µM) | 0.045 mg/L (≈ 0.144 µM) | –
3 | CC(=O)OCC1=C(C(=O)O)N2C(=O)[C@H]([C@@H](C)O)[C@H]2S1 [FCE 21420] | 3.12 mg/L (≈ 10.9 µM) | – | 0.78 mg/L (≈ 2.71 µM) | 0.023 mg/L (≈ 0.0801 µM) | – | – | 0.78 mg/L (≈ 2.71 µM) | 0.045 mg/L (≈ 0.157 µM) | 0.39 mg/L (≈ 1.36 µM) | > 50 mg/L | 0.39 mg/L (≈ 1.36 µM) | 0.39 mg/L (≈ 1.36 µM) | – | 0.045 mg/L (≈ 0.157 µM) | 0.78 mg/L (≈ 2.71 µM) | 3.1 mg/L (≈ 10.8 µM) | – | – | 3.12 mg/L (≈ 10.9 µM)
